Test results from patent US20170190671A1, “BIS(ARYL)CATECHOL DERIVATIVES AS HERBICIDES” (E I DU PONT DE NEMOURS AND COMPANY, priority 2014, published 2017).

Tests used:
Format in all cases: in vivo
[1] = test system: barnyardgrass (Echinochloa crus-galli); experiment: Test A preemergence
From the text: (§1) Seeds of plant species selected from barnyardgrass (Echinochloa crus-galli), kochia (Kochia scoparia), ragweed (common ragweed, Ambrosia elatior), Italian ryegrass (Lolium multiflorum), large (Lg) crabgrass (Digitaria sanguinalis), giant foxtail (Setaria faberii), morningglory (Ipomoea spp.), pigweed (Amaranthus retroflexus), velvetleaf (Abutilon theophrasti), wheat (Triticum aestivum), and corn (Zea mays) were planted into a blend of loam soil and sand and treated preemergence with a directed soil spray using test chemicals formulated in a non-phytotoxic solvent mixture which included a surfactant.
(§2) At the same time, plants selected from these crop and weed species and also blackgrass (Alopecurus myosuroides), and galium (catchweed bedstraw, Galium aparine) were planted in pots containing the same blend of loam soil and sand and treated with postemergence applications of test chemicals formulated in the same manner. Plants ranged in height from 2 to 10 cm and were in the one- to two-leaf stage for the postemergence treatment. Treated plants and untreated controls were maintained in a greenhouse for approximately 10 days, after which time all treated plants were compared to untreated controls and visually evaluated for injury. Plant response ratings, summarized in Table A, are based on a 0 to 100 scale where 0 is no effect and 100 is complete control. A dash (-) response means no test result.

[2] = test system: ragweed (common ragweed, Ambrosia elatior); experiment: Test A preemergence
From the text: as §1, §2

[3] = test system: Italian ryegrass (Lolium multiflorum); experiment: Test A preemergence
From the text: as §1, §2

kochia (Kochia scoparia) [4] = experiment: Test A preemergence
From the text: as §1, §2

[5] = test system: giant foxtail (Setaria faberii); experiment: Test A preemergence
From the text: as §1, §2

[6] = test system: pigweed (Amaranthus retroflexus); experiment: Test A preemergence
From the text: as §1, §2

[7] = test system: barnyardgrass (Echinochloa crus-galli); experiment: Test A postemergence; conditions: 0 to 100 scale
From the text: as §1, §2

[8] = test system: ragweed (common ragweed, Ambrosia elatior); experiment: Test A postemergence; conditions: 0 to 100 scale
From the text: as §1, §2

[9] = test system: wheat (Triticum aestivum); experiment: Test A postemergence; conditions: 0 to 100 scale
From the text: as §1, §2

[10] = test system: Italian ryegrass (Lolium multiflorum); experiment: Test A postemergence; conditions: 0 to 100 scale
From the text: as §1, §2

kochia (Kochia scoparia) [11] = experiment: Test A postemergence; conditions: 0 to 100 scale
From the text: as §1, §2

[12] = test system: giant foxtail (Setaria faberii); experiment: Test A postemergence; conditions: 0 to 100 scale
From the text: as §1, §2

[13] = test system: pigweed (Amaranthus retroflexus); experiment: Test A postemergence; conditions: 0 to 100 scale
From the text: as §1, §2

corn (Zea mays) = experiment: Test A postemergence; conditions: 0 to 100 scale
From the text: as §1, §2

[14] = test system: blackgrass (Alopecurus myosuroides); experiment: Test A postemergence; conditions: 0 to 100 scale
From the text: as §1, §2

[15] = test system: galium (catchweed bedstraw, Galium aparine); experiment: Test A postemergence; conditions: 0 to 100 scale
From the text: as §1, §2

[16] = 31 g ai/ha, 0 to 100 scale (0 no effect, 100 complete control)

Question: With `FC(F)(F)c1cnc(Oc2c(Br)cccc2Oc2ncc(Cl)cn2)s1` [Compound 6] as the compound, how does the “Barnyardgrass plant response rating” value [1, 16] read?
Answer: The value was 20.

Question: What about the “Plant response rating, Barnyardgrass” value ([1]; 125 g ai/ha, 0 to 100 scale) of the same compound?
Answer: The value was 70.

Question: What about the “Ragweed plant response rating” value [2, 16] of the same compound?
Answer: Its value is 0.

Question: What about the “Plant response rating, Ragweed” value ([2]; 125 g ai/ha, 0 to 100 scale) of the same compound?
Answer: The value was 0.

Question: What about the “Ryegrass, Italian plant response rating” value [3, 16] of the same compound?
Answer: Its value is 0.

Question: And the “Plant response rating, Ryegrass, Italian” value ([3]; 125 g ai/ha, 0 to 100 scale)?
Answer: Its value is 20.

Question: And the “Kochia plant response rating” value (kochia (Kochia scoparia) [4]; [16])?
Answer: The value was 30.

Question: And the “Plant response rating, Kochia” value (kochia (Kochia scoparia) [4]; 125 g ai/ha, 0 to 100 scale)?
Answer: Its value is 80.

Question: What about the “Foxtail, Giant plant response rating” value [5, 16] of the same compound?
Answer: Its value is 60.

Question: And the “Plant response rating, Foxtail, Giant” value ([5]; 125 g ai/ha, 0 to 100 scale)?
Answer: Its value is 100.

Question: And the “Pigweed plant response rating” value [6, 16]?
Answer: Its value is 30.

Question: And the “Plant response rating, Pigweed” value ([6]; 125 g ai/ha, 0 to 100 scale)?
Answer: The value was 90.

Question: What about the “Plant response rating, Barnyardgrass” value ([7]; 31 g ai/ha) of the same compound?
Answer: Its value is 10.

Question: And the “Plant response rating, Barnyardgrass” value ([7]; 125 g ai/ha)?
Answer: Its value is 100.

Question: And the “Plant response rating, Ragweed” value ([8]; 31 g ai/ha)?
Answer: Its value is 0.

Question: And the “Plant response rating, Ragweed” value ([8]; 125 g ai/ha)?
Answer: Its value is 20.

Question: And the “Plant response rating, Wheat” value ([9]; 31 g ai/ha)?
Answer: The value was 0.

Question: And the “Plant response rating, Wheat” value ([9]; 125 g ai/ha)?
Answer: The value was 10.

Question: And the “Plant response rating, Ryegrass, Italian” value ([10]; 31 g ai/ha)?
Answer: The value was 0.

Question: What about the “Plant response rating, Ryegrass, Italian” value ([10]; 125 g ai/ha) of the same compound?
Answer: Its value is 50.

Question: What about the “Plant response rating, Kochia” value (kochia (Kochia scoparia) [11]; 31 g ai/ha) of the same compound?
Answer: Its value is 70.

Question: And the “Plant response rating, Kochia” value (kochia (Kochia scoparia) [11]; 125 g ai/ha)?
Answer: Its value is 100.

Question: What about the “Plant response rating, Foxtail, Giant” value ([12]; 31 g ai/ha) of the same compound?
Answer: Its value is 10.

Question: And the “Plant response rating, Foxtail, Giant” value ([12]; 125 g ai/ha)?
Answer: Its value is 60.

Question: What about the “Plant response rating, Pigweed” value ([13]; 31 g ai/ha) of the same compound?
Answer: The value was 50.

Question: What about the “Plant response rating, Pigweed” value ([13]; 125 g ai/ha) of the same compound?
Answer: Its value is 90.

Question: And the “Plant response rating, Corn” value (corn (Zea mays); 31 g ai/ha)?
Answer: Its value is 0.

Question: What about the “Plant response rating, Corn” value (corn (Zea mays); 125 g ai/ha) of the same compound?
Answer: The value was 10.

Question: And the “Plant response rating, Blackgrass” value ([14]; 31 g ai/ha)?
Answer: The value was 10.

Question: And the “Plant response rating, Blackgrass” value ([14]; 125 g ai/ha)?
Answer: The value was 40.

Question: What about the “Plant response rating, Galium” value ([15]; 31 g ai/ha) of the same compound?
Answer: Its value is 70.

Question: What about the “Plant response rating, Galium” value ([15]; 125 g ai/ha) of the same compound?
Answer: Its value is 100.

Question: What does the source list for `N#Cc1cccc(Oc2ncc(Br)cn2)c1Oc1cccnc1` [Compound 7]?
Answer: pest or weed control at 31 g/ha ([1]; Echinochloa crus-galli, pre-emergence, 240 h, 31 g ai/ha, 0 to 100 scale (0 no effect, 100 complete control), read-out: Barnyardgrass plant response rating): 0%; pest or weed control at 125 g/ha ([1]; Echinochloa crus-galli, pre-emergence, 240 h, 125 g ai/ha, 0 to 100 scale, read-out: Plant response rating, Barnyardgrass): 0%; pest or weed control at 31 g/ha ([2]; Ambrosia artemisiifolia, pre-emergence, 240 h, 31 g ai/ha, 0 to 100 scale (0 no effect, 100 complete control), read-out: Ragweed plant response rating): 0%; pest or weed control at 125 g/ha ([2]; Ambrosia artemisiifolia, pre-emergence, 240 h, 125 g ai/ha, 0 to 100 scale, read-out: Plant response rating, Ragweed): 0%; pest or weed control at 31 g/ha ([3]; Lolium multiflorum, pre-emergence, 240 h, 31 g ai/ha, 0 to 100 scale (0 no effect, 100 complete control), read-out: Ryegrass, Italian plant response rating): 0%; pest or weed control at 125 g/ha ([3]; Lolium multiflorum, pre-emergence, 240 h, 125 g ai/ha, 0 to 100 scale, read-out: Plant response rating, Ryegrass, Italian): 0%; pest or weed control at 31 g/ha (kochia (Kochia scoparia) [4]; Bassia scoparia, pre-emergence, 240 h, 31 g ai/ha, 0 to 100 scale (0 no effect, 100 complete control), read-out: Kochia plant response rating): 0%; pest or weed control at 125 g/ha (kochia (Kochia scoparia) [4]; Bassia scoparia, pre-emergence, 240 h, 125 g ai/ha, 0 to 100 scale, read-out: Plant response rating, Kochia): 0%; pest or weed control at 31 g/ha ([5]; Setaria faberi, pre-emergence, 240 h, 31 g ai/ha, 0 to 100 scale (0 no effect, 100 complete control), read-out: Foxtail, Giant plant response rating): 0%; pest or weed control at 125 g/ha ([5]; Setaria faberi, pre-emergence, 240 h, 125 g ai/ha, 0 to 100 scale, read-out: Plant response rating, Foxtail, Giant): 0%; pest or weed control at 31 g/ha ([6]; Amaranthus retroflexus, pre-emergence, 240 h, 31 g ai/ha, 0 to 100 scale (0 no effect, 100 complete control), read-out: Pigweed plant response rating): 0%; pest or weed control at 125 g/ha ([6]; Amaranthus retroflexus, pre-emergence, 240 h, 125 g ai/ha, 0 to 100 scale, read-out: Plant response rating, Pigweed): 0%; pest or weed control at 31 g/ha ([7]; Echinochloa crus-galli, post-emergence, 240 h, 31 g ai/ha, read-out: Plant response rating, Barnyardgrass): 0%; pest or weed control at 125 g/ha ([7]; Echinochloa crus-galli, post-emergence, 240 h, 125 g ai/ha, read-out: Plant response rating, Barnyardgrass): 0%; pest or weed control at 31 g/ha ([8]; Ambrosia artemisiifolia, post-emergence, 240 h, 31 g ai/ha, read-out: Plant response rating, Ragweed): 0%; pest or weed control at 125 g/ha ([8]; Ambrosia artemisiifolia, post-emergence, 240 h, 125 g ai/ha, read-out: Plant response rating, Ragweed): 0%; plant injury at 31 g/ha ([9]; Triticum aestivum, post-emergence, 240 h, 31 g ai/ha, read-out: Plant response rating, Wheat): 0%; plant injury at 125 g/ha ([9]; Triticum aestivum, post-emergence, 240 h, 125 g ai/ha, read-out: Plant response rating, Wheat): 0%; pest or weed control at 31 g/ha ([10]; Lolium multiflorum, post-emergence, 240 h, 31 g ai/ha, read-out: Plant response rating, Ryegrass, Italian): 0%; pest or weed control at 125 g/ha ([10]; Lolium multiflorum, post-emergence, 240 h, 125 g ai/ha, read-out: Plant response rating, Ryegrass, Italian): 0%; pest or weed control at 31 g/ha (kochia (Kochia scoparia) [11]; Bassia scoparia, post-emergence, 240 h, 31 g ai/ha, read-out: Plant response rating, Kochia): 0%; pest or weed control at 125 g/ha (kochia (Kochia scoparia) [11]; Bassia scoparia, post-emergence, 240 h, 125 g ai/ha, read-out: Plant response rating, Kochia): 10%; pest or weed control at 31 g/ha ([12]; Setaria faberi, post-emergence, 240 h, 31 g ai/ha, read-out: Plant response rating, Foxtail, Giant): 0%; pest or weed control at 125 g/ha ([12]; Setaria faberi, post-emergence, 240 h, 125 g ai/ha, read-out: Plant response rating, Foxtail, Giant): 0%; pest or weed control at 31 g/ha ([13]; Amaranthus retroflexus, post-emergence, 240 h, 31 g ai/ha, read-out: Plant response rating, Pigweed): 10%; pest or weed control at 125 g/ha ([13]; Amaranthus retroflexus, post-emergence, 240 h, 125 g ai/ha, read-out: Plant response rating, Pigweed): 20%; Corn plant response rating (crop injury, 0 = no effect, 100 = complete kill) at 31 g/ha (corn (Zea mays); Zea mays, post-emergence, 240 h, 31 g ai/ha): 0%; Corn plant response rating (crop injury, 0 = no effect, 100 = complete kill) at 125 g/ha (corn (Zea mays); Zea mays, post-emergence, 240 h, 125 g ai/ha): 10%; pest or weed control at 31 g/ha ([14]; Alopecurus myosuroides, post-emergence, 240 h, 31 g ai/ha, read-out: Plant response rating, Blackgrass): 0%; pest or weed control at 125 g/ha ([14]; Alopecurus myosuroides, post-emergence, 240 h, 125 g ai/ha, read-out: Plant response rating, Blackgrass): 0%; pest or weed control at 31 g/ha ([15]; Galium, post-emergence, 240 h, 31 g ai/ha, read-out: Plant response rating, Galium): 10%; pest or weed control at 125 g/ha ([15]; Galium, post-emergence, 240 h, 125 g ai/ha, read-out: Plant response rating, Galium): 10%
